Data taken from ChEMBL document CHEMBL4308841, “Synthesis, in vitro antiproliferative activity, and kinase inhibitory effects of pyrazole-containing diarylureas and diarylamides” (Eur J Med Chem, 2018).
pIC50: −log10 of the molar value.

Legend:
SF-539 = experiment: Growth inhibition of human SF539 cells assessed as cell growth at 100 uM incubated for 48 hrs by sulforhodamine B assay relative to control; assay type: functional; conditions: SF-539, 48 h, read-out: Activity
Malme-3M = experiment: Growth inhibition of human MALME-3M cells assessed as cell growth at 1 uM incubated for 48 hrs by sulforhodamine B assay relative to control; assay type: functional; conditions: read-out: Activity
MDA-MB-231 = experiment: Growth inhibition of human MDA-MB-231 cells incubated for 48 hrs by sulforhodamine B assay; assay type: functional, cell-based; conditions: MDA-MB-231, 48 h
A549 = experiment: Growth inhibition of human A549/ATCC cells assessed as cell growth at 0.1 uM incubated for 48 hrs by sulforhodamine B assay relative to control; assay type: functional; conditions: A549, 48 h, read-out: Activity
NCI-H226 = experiment: Growth inhibition of human NCI-H226 cells assessed as cell growth at 0.1 uM incubated for 48 hrs by sulforhodamine B assay relative to control; assay type: functional; conditions: NCI-H226, 48 h, read-out: Activity
CAKI-1 = experiment: Growth inhibition of human Caki1 cells incubated for 48 hrs by sulforhodamine B assay; assay type: functional, cell-based; conditions: CAKI-1, 48 h
T47D = experiment: Growth inhibition of human T47D cells assessed as cell growth at 1 uM incubated for 48 hrs by sulforhodamine B assay relative to control; assay type: functional; conditions: read-out: Activity
NCI-H522 = experiment: Growth inhibition of human NCI-H522 cells assessed as cell growth at 0.01 uM incubated for 48 hrs by sulforhodamine B assay relative to control; assay type: functional; conditions: NCI-H522, 48 h, read-out: Activity
NCI-H23 = experiment: Growth inhibition of human NCI-H23 cells assessed as cell growth at 0.1 uM incubated for 48 hrs by sulforhodamine B assay relative to control; assay type: functional; conditions: NCI-H23, 48 h, read-out: Activity
PC-3 [1] = experiment: Growth inhibition of human PC3 cells assessed as cell growth at 0.1 uM incubated for 48 hrs by sulforhodamine B assay relative to control; assay type: functional; conditions: PC-3, 48 h, read-out: Activity
OVCAR-4 [2] = experiment: Growth inhibition of human OVCAR4 cells assessed as cell growth at 100 uM incubated for 48 hrs by sulforhodamine B assay relative to control; assay type: functional; conditions: OVCAR-4, 48 h, read-out: Activity
UO-31 = experiment: Growth inhibition of human UO31 cells assessed as cell growth at 100 uM incubated for 48 hrs by sulforhodamine B assay relative to control; assay type: functional; conditions: UO-31, 48 h, read-out: Activity
OVCAR-4 [3] = experiment: Growth inhibition of human OVCAR4 cells incubated for 48 hrs by sulforhodamine B assay; assay type: functional, cell-based; conditions: OVCAR-4, 48 h
COLO 205 [4] = experiment: Growth inhibition of human COLO205 cells assessed as cell growth at 0.01 uM incubated for 48 hrs by sulforhodamine B assay relative to control; assay type: functional; conditions: COLO 205, 48 h, read-out: Activity
COLO 205 [5] = experiment: Growth inhibition of human COLO205 cells assessed as cell growth at 0.1 uM incubated for 48 hrs by sulforhodamine B assay relative to control; assay type: functional; conditions: COLO 205, 48 h, read-out: Activity
SK-MEL-2 [6] = experiment: Growth inhibition of human SK-MEL-2 cells assessed as cell growth at 10 uM incubated for 48 hrs by sulforhodamine B assay relative to control; assay type: functional; conditions: SK-MEL-2, 48 h, read-out: Activity
HCT-15 = experiment: Growth inhibition of human HCT15 cells assessed as cell growth at 0.01 uM incubated for 48 hrs by sulforhodamine B assay relative to control; assay type: functional; conditions: HCT-15, 48 h, read-out: Activity
SK-MEL-2 [7] = experiment: Growth inhibition of human SK-MEL-2 cells assessed as cell growth at 1 uM incubated for 48 hrs by sulforhodamine B assay relative to control; assay type: functional; conditions: SK-MEL-2, 48 h, read-out: Activity
PC-3 [8] = experiment: Growth inhibition of human PC3 cells assessed as cell growth at 0.01 uM incubated for 48 hrs by sulforhodamine B assay relative to control; assay type: functional; conditions: PC-3, 48 h, read-out: Activity
MDA-MB-468 = experiment: Growth inhibition of human MDA-MB-468 cells incubated for 48 hrs by sulforhodamine B assay; assay type: functional, cell-based; conditions: MDA-MB-468, 48 h
SF-295 = experiment: Growth inhibition of human SF295 cells assessed as cell growth at 0.1 uM incubated for 48 hrs by sulforhodamine B assay relative to control; assay type: functional; conditions: SF-295, 48 h, read-out: Activity
CCRF-CEM = experiment: Growth inhibition of human CCRF-CEM cells assessed as cell growth at 0.01 uM incubated for 48 hrs by sulforhodamine B assay relative to control; assay type: functional; conditions: read-out: Activity
SNB-19 = experiment: Growth inhibition of human SNB19 cells incubated for 48 hrs by sulforhodamine B assay; assay type: functional, cell-based; conditions: SNB-19, 48 h
MDA-MB-435 = experiment: Growth inhibition of human MDA-MB-435 cells assessed as cell growth at 100 uM incubated for 48 hrs by sulforhodamine B assay relative to control; assay type: functional; conditions: MDA-MB-435, 48 h, read-out: Activity
NCI-H460 = experiment: Growth inhibition of human NCI-H460 cells assessed as cell growth at 100 uM incubated for 48 hrs by sulforhodamine B assay relative to control; assay type: functional; conditions: NCI-H460, 48 h, read-out: Activity
SW-620 = experiment: Growth inhibition of human SW620 cells incubated for 48 hrs by sulforhodamine B assay; assay type: functional, cell-based; conditions: SW-620, 48 h
SR = experiment: Growth inhibition of human SR cells assessed as cell growth at 0.1 uM incubated for 48 hrs by sulforhodamine B assay relative to control; assay type: functional; conditions: read-out: Activity
NCI/ADR-RES = experiment: Growth inhibition of human NCI/ADR-RES cells assessed as cell growth at 0.1 uM incubated for 48 hrs by sulforhodamine B assay relative to control; assay type: functional; conditions: read-out: Activity
NCI-H322M [9] = experiment: Growth inhibition of human NCI-H322M cells assessed as cell growth at 0.01 uM incubated for 48 hrs by sulforhodamine B assay relative to control; assay type: functional; conditions: read-out: Activity
NCI-H322M [10] = experiment: Growth inhibition of human NCI-H322M cells assessed as cell growth at 100 uM incubated for 48 hrs by sulforhodamine B assay relative to control; assay type: functional; conditions: read-out: Activity
[11] = read-out: LC50 (the source's name)
[12] = read-out: pLC50 (the source's name) (converted)

COc1cc(Cl)cc(-c2nn(-c3cccc(NC(=O)c4cccc(C(F)(F)F)c4)c3)cc2-c2ccncc2)c1
growth at 100 µM (SF-539): 53% | growth at 1 µM (Malme-3M): 82% | GI50 (MDA-MB-231; read-out: GI50): 1.38 µM | CC50 (MDA-MB-231; [11]): > 100 µM | TGI (MDA-MB-231; read-out: TGI): 99.7 µM | GI50 (MDA-MB-231; read-out: pGI50 (converted)): 1.38 µM | CC50 (MDA-MB-231; [12]): > 100 µM | TGI (MDA-MB-231; read-out: pTGI (converted)): 10 µM | growth at 0.1 µM (A549): 93% | growth at 0.1 µM (NCI-H226): 90% | GI50 (CAKI-1; read-out: GI50): 3.58 µM | CC50 (CAKI-1; [11]): > 100 µM | TGI (CAKI-1; read-out: TGI): > 100 µM | GI50 (CAKI-1; read-out: pGI50 (converted)): 3.89 µM | CC50 (CAKI-1; [12]): > 100 µM | TGI (CAKI-1; read-out: pTGI (converted)): > 100 µM | growth at 1 µM (T47D): 92% | growth at 0.01 µM (NCI-H522): 51% | growth at 0.1 µM (NCI-H23): 97% | growth at 0.1 µM (PC-3 [1]): 52% | growth at 100 µM (OVCAR-4 [2]): 74% | growth at 100 µM (UO-31): 37% | GI50 (OVCAR-4 [3]; read-out: GI50): > 100 µM | CC50 (OVCAR-4 [3]; [11]): > 100 µM | TGI (OVCAR-4 [3]; read-out: TGI): > 100 µM | GI50 (OVCAR-4 [3]; read-out: pGI50 (converted)): > 100 µM | CC50 (OVCAR-4 [3]; [12]): > 100 µM | TGI (OVCAR-4 [3]; read-out: pTGI (converted)): > 100 µM | growth at 0.01 µM (COLO 205 [4]): 108% | growth at 0.1 µM (COLO 205 [5]): 101% | growth at 10 µM (SK-MEL-2 [6]): 56.4% | growth at 0.01 µM (HCT-15): 56% | growth at 1 µM (SK-MEL-2 [7]): 56% | growth at 0.01 µM (PC-3 [8]): 94% | pIC50 (MDA-MB-468): 5.37 | GI50 (MDA-MB-468; read-out: GI50): 4.26 µM | CC50 (MDA-MB-468; [11]): > 100 µM | TGI (MDA-MB-468; read-out: TGI): > 100 µM | GI50 (MDA-MB-468; read-out: pGI50 (converted)): 4.27 µM | CC50 (MDA-MB-468; [12]): > 100 µM | TGI (MDA-MB-468; read-out: pTGI (converted)): > 100 µM | growth at 0.1 µM (SF-295): 90% | growth at 0.01 µM (CCRF-CEM): 96% | GI50 (SNB-19; read-out: GI50): > 100 µM | CC50 (SNB-19; [11]): > 100 µM | TGI (SNB-19; read-out: TGI): > 100 µM | GI50 (SNB-19; read-out: pGI50 (converted)): > 100 µM | CC50 (SNB-19; [12]): > 100 µM | TGI (SNB-19; read-out: pTGI (converted)): > 100 µM | growth at 100 µM (MDA-MB-435): 52% | growth at 100 µM (NCI-H460): 30% | GI50 (SW-620; read-out: GI50): > 100 µM | LC50 (SW-620; read-out: LC50): > 100 µM | TGI (SW-620; read-out: TGI): > 100 µM | GI50 (SW-620; read-out: pGI50 (converted)): > 100 µM | LC50 (SW-620; read-out: pLC50 (converted)): > 100 µM | TGI (SW-620; read-out: pTGI (converted)): > 100 µM | growth at 0.1 µM (SR): 54% | growth at 0.1 µM (NCI/ADR-RES): 104% | growth at 0.01 µM (NCI-H322M [9]): 69% | growth at 100 µM (NCI-H322M [10]): 75%
